Results reported in patent US5436254A, “Carbostyril derivatives” (Otsuka Pharmaceutical Company, Ltd., priority 1989, dated 1995).
Where two headings read alike, the source gives them in different places.

Molecular target: V1 receptor (Rattus norvegicus, UniProt P30560)
Experiment: biochemical
Format: binding

Chain of V1 receptor (P30560 whole entry): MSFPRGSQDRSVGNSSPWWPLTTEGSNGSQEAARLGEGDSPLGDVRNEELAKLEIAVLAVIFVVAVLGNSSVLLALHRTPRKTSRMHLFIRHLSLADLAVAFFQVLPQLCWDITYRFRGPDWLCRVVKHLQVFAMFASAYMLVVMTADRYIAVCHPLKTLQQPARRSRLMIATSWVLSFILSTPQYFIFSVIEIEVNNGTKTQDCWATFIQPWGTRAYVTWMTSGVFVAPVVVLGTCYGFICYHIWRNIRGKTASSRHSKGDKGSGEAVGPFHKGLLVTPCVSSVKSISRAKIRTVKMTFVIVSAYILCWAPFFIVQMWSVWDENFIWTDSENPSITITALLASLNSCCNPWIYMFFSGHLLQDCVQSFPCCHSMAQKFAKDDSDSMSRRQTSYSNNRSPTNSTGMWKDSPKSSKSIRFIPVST

SMILES	IC50	IC50 (read-out: IC50)
CC(=O)N1CCN(CCCCOc2ccc(C(=O)N3CCC(N4C(=O)CCc5ccccc54)CC3)cc2)CC1 [Example 162, 1-{1-[4-[4-(4-Acetyl-1-piperazinyl)butoxy]benzoyl]-4-piperidinyl}-3,4-dihydrocarbostyril]	110 nM	
O=C(OCCCCOc1ccc(C(=O)N2CCC(N3C(=O)CCc4ccccc43)CC2)cc1)N1CCNCC1 [Example 163, 1-{1-[4-[4-(1-Piperazinyl)carbonyloxybutoxy]benzoyl]-4-piperidinyl}-3,4-dihydrocarbostyril]	75 nM	
COC(=O)[C@H](CCCCNC(=O)OCc1ccccc1)NC(=O)CCCCCOc1ccc(C(=O)N2CCC(N3C(=O)CCc4ccccc43)CC2)cc1 [Example 165, 1-{1-[4-{5-[(5-Benzyloxycarbonylamino)-1-(S)-methoxycarbonyl]pentylaminocarbonylpentyloxy}benzoyl]-4-piperidinyl}-3,4-dihydrocarbostyril]	540 nM	
COC(=O)[C@H](CCCCN)NC(=O)CCCCCOc1ccc(C(=O)N2CCC(N3C(=O)CCc4ccccc43)CC2)cc1 [Example 166, 1-{1-[4-{5-[5-Amino-1-(S)-methoxycarbonyl]pentylaminocarbonylpentyloxy}benzoyl]-4-piperidinyl}-3,4-dihydrocarbostyril]	44 nM	
CC(C)CCNCCCOc1ccc(C(=O)N2CCC(N3C(=O)CCc4ccccc43)CC2)cc1 [Example 167, 1-{1-[4-(3-Isopentylaminopropoxy)benzoyl]-4-piperidinyl}-3,4-dihydrocarbostyril]	280 nM	
CCOC(=O)NCCCOc1ccc(C(=O)N2CCC(N3C(=O)CCc4ccccc43)CC2)cc1 [Example 168, 1-{1-[4-(3-Ethoxycarbonylaminopropoxy)benzoyl]-4-piperidinyl}-3,4-dihydrocarbostyril]	190 nM	
O=C(c1ccc(OCCCNS(=O)(=O)c2ccccc2)cc1)N1CCC(N2C(=O)CCc3ccccc32)CC1 [Example 169, 1-{1-[4-(3-Phenylsulfonylaminopropoxy)benzoyl]-4-piperidinyl}-3,4-dihydrocarbostyril]	170 nM	
O=C(c1ccc(OCCCCC(O)CNCc2ccccc2)cc1)N1CCC(N2C(=O)CCc3ccccc32)CC1 (stereo not drawn) [Example 170, 1-{1-[4-(5-Hydroxy-6-benzylaminohexyloxy)benzoyl]-4-piperidinyl}-3,4-dihydrocarbostyril]	39 nM	
NCC(O)CCCCOc1ccc(C(=O)N2CCC(N3C(=O)CCc4ccccc43)CC2)cc1 (stereo not drawn) [Example 171, 1-{1-[4-(5-Hydroxy-6-aminohexyloxy)benzoyl]-4-piperidinyl}-3,4-dihydrocarbostyril]	240 nM	
O=C(c1ccc(OCCCCC(O)CN2CCN(Cc3ccccc3)CC2)cc1)N1CCC(N2C(=O)CCc3ccccc32)CC1 (stereo not drawn) [Example 172, 1-(1-[4-(5-Hydroxy-6-(4-benzyl-1-piperazinyl)hexyloxy]benzoyl]-4-piperidinyl)-3,4-dihydrocarbostyril.dioxalate]	43 nM	
O=C(c1ccc(OCCCCC(O)CN2CCNCC2)cc1)N1CCC(N2C(=O)CCc3ccccc32)CC1 (stereo not drawn) [Example 173, 1-{1-[4-(5-Hydroxy-6-(1-piperazinyl)hexyloxy]benzoyl]-4-piperidinyl}-3,4-dihydrocarbostyril.dioxalate]	39 nM	
Cc1ccc(S(=O)(=O)NCCCOc2ccc(C(=O)N3CCC(N4C(=O)CCc5ccccc54)CC3)cc2)cc1 [Example 174, 1-{1-[4-(3-p-Toluenesulfonylaminopropoxy)benzoyl]-4-piperidinyl}-3,4-dihydrocarbostyril]	490 nM	
CCOc1ccc(C(=O)N2CCC(n3c(=O)ccc4c(F)cc(F)cc43)CC2)c(OC)c1 [Example 175, 5,7-Difluoro-1-[1-(2-Methoxy-4-ethoxybenzoyl)-4-piperidinyl]carbostyril]		320 nM
CC(=O)NCC(CCCCOc1ccc(C(=O)N2CCC(N3C(=O)CCc4ccccc43)CC2)cc1)OC(C)=O (stereo not drawn) [Example 176, 1-{1-[4-(5-Acetoxy-6-acetylaminohexyloxy)benzoyl]-4-piperidinyl}-3,4-dihydrocarbostyril]	130 nM	
CC(=O)NCC(O)CCCCOc1ccc(C(=O)N2CCC(N3C(=O)CCc4ccccc43)CC2)cc1 (stereo not drawn) [Example 177, 1-{1-[4-(5-Hydroxy-6-acetylaminohexyloxy)-benzoyl]-4-piperidinyl}-3,4-dihydrocarbostyril]	130 nM	
CN1CCN(CC(O)CCCCOc2ccc(C(=O)N3CCC(N4C(=O)CCc5ccccc54)CC3)cc2)CC1 (stereo not drawn) [Example 178, 1-{1-[4-(5-Hydroxy-6-(4-methyl-1-piperazinyl)hexyloxy]benzoyl]-4-piperidinyl}-3,4-dihydrocarbostyril]	45 nM	
CN(C)CCCCc1ccc(C(=O)N2CCC(N3C(=O)CCc4ccccc43)CC2)cc1 [Example 180, 1-{1-[4-(4-Dimethylaminobutyl)benzoyl]-4-piperidinyl}-3,4-dihydrocarbostyril]	400 nM	
CC(=O)NCC(=O)NCCCOc1ccc(C(=O)N2CCC(N3C(=O)CCc4ccccc43)CC2)cc1 [Example 181, 1-{1-[4-(3-Acetylaminoacetylaminopropoxy)benzoyl]-4-piperidinyl}-3,4-dihydrocarbostyril]	230 nM	

SMILES	IC50	IC50 (read-out: IC50)
CCCC(NC(C)=O)C(=O)NCCCOc1ccc(C(=O)N2CCC(N3C(=O)CCc4ccccc43)CC2)cc1 (stereo not drawn) [Example 182, 1-{1-[4-(3-[2-(Acetylamino)valerylamino]propoxy)benzoyl]-4-piperidinyl}-3,4-dihydrocarbostyril]	120 nM	
CCN(CC)CC(O)CCCCCCOc1ccc(C(=O)N2CCC(N3C(=O)CCc4ccccc43)CC2)cc1 (stereo not drawn) [Example 184, 1-{1-[4-(7-Hydroxy-8-diethylaminooctyloxy)benzoyl]-4-piperidinyl}-3,4-dihydrocarbostyril]	39 nM	
CCN(CC)CC(O)CCCCOc1ccc(C(=O)N2CCC(N3C(=O)CCc4ccc(F)cc43)CC2)c(OC)c1 (stereo not drawn) [Example 185, 7-Fluoro-1-{1-[4-(5-Hydroxy-6-diethylaminohexyloxy)-2-methoxybenzoyl]-4-piperidinyl}-3,4-dihydrocarbostyril]	10 nM	
O=C(c1ccc(OCCCC(O)CN2CCCC2)cc1)N1CCC(N2C(=O)CCc3ccccc32)CC1 (stereo not drawn) [Example 186, 1-{1-[4-(4-Hydroxy-5-(1-pyrrolidinyl)pentyloxy)benzoyl]-4-piperidinyl}-3,4-dihydrocarbostyril]	63 nM	
CN(C)CC(O)CCCCCCOc1ccc(C(=O)N2CCC(N3C(=O)CCc4ccccc43)CC2)cc1 (stereo not drawn) [Example 187, 1-{1-[4-(7-Hydroxy-8-dimethylaminooctyloxy)benzoyl]-4-piperidinyl}-3,4-dihydrocarbostyril]	40 nM	
O=C(c1ccc(OCCCC(O)CN2CCCCC2)cc1)N1CCC(N2C(=O)CCc3ccccc32)CC1 (stereo not drawn) [Example 188]	68 nM	
O=C(c1ccc(OCCCC(O)CN2CCOCC2)cc1)N1CCC(N2C(=O)CCc3ccccc32)CC1 (stereo not drawn) [Example 189, 1-{1-[4-(4-Hydroxy-5-morpholinopentyloxy)benzoyl]-4-piperidinyl}-3,4-dihydrocarbostyril]	130 nM	
CCN(CC)CC(O)COCCCCCOc1ccc(C(=O)N2CCC(N3C(=O)CCc4ccccc43)CC2)cc1 (stereo not drawn) [Example 190, 1-{1-[4-(5-(2-Hydroxy-3-diethylaminopropoxy)pentyloxy)benzoyl]-4-piperidinyl}-3,4-dihydrocarbostyril]	33 nM	
CN(C)CC(O)COCCCCCOc1ccc(C(=O)N2CCC(N3C(=O)CCc4ccccc43)CC2)cc1 (stereo not drawn) [Example 191, 1-{1-[4-(5-(2-Hydroxy-3-dimethylaminopropoxy)pentyloxy)benzoyl]-4-piperidinyl}-3,4-dihydrocarbostyril]	34 nM	
CCN(CC)CC(O)COCCCOc1ccc(C(=O)N2CCC(N3C(=O)CCc4ccccc43)CC2)cc1 (stereo not drawn) [Example 192, 1-{1-[4-(3-(2-Hydroxy-3-diethylaminopropoxy)propoxy)benzoyl]-4-piperidinyl}-3,4-dihydrocarbostyril]	61 nM	
Nc1ccc(C(=O)NCCCOc2ccc(C(=O)N3CCC(N4C(=O)CCc5ccccc54)CC3)cc2)cc1 [Example 193, 1-{1-[4-(3-(4-Aminobenzoylamino)propoxy)benzoyl]-4-piperidinyl}-3,4-dihydrocarbostyril]	120 nM	
O=C(c1ccc(OCCCC[S+]([O-])c2nc3ccccc3[nH]2)cc1)N1CCC(N2C(=O)CCc3ccccc32)CC1 (stereo not drawn) [Example 194, 1-{1-[4-(4-(Benzimidazol-2-yl)sulfinylbutoxy)benzoyl]-4-piperidinyl}-3,4-dihydrocarbostyril]	350 nM	
CC(=O)N[C@@H](CCC(N)=O)C(=O)NCCCOc1ccc(C(=O)N2CCC(N3C(=O)CCc4ccccc43)CC2)cc1 [Example 195, 1-(1-[4-(3-(α-N-Acetyl-(L)-glutaminyl)aminopropoxy)benzoyl]-4-piperidinyl}-3,4-dihydrocarbostyril]	190 nM	
CC(=O)Nc1ccc(C(=O)NCCCOc2ccc(C(=O)N3CCC(N4C(=O)CCc5ccccc54)CC3)cc2)cc1 [Example 196, 1-(1-[4-(3-(4-Acetylaminobenzoyl)aminopropoxy)benzoyl]-4-piperidinyl}-3,4-dihydrocarbostyril]	170 nM	
CN(C)CCCNC(=O)CCCCCOc1ccc(C(=O)N2CCC(N3C(=O)CCc4ccccc43)CC2)cc1 [Example 197, 1-(1-[4-(5-(3-Dimethylaminopropyl)aminocarbonylpentyloxy)benzoyl]-4-piperidinyl}-3,4-dihydrocarbostyril]	35 nM	
CCNC(=O)NCCCOc1ccc(C(=O)N2CCC(N3C(=O)CCc4ccccc43)CC2)cc1 [Example 198, 1-{1-[4-(3-Ethylaminocarbonylaminopropoxy)benzoyl]-4-piperidinyl}-3,4-dihydrocarbostyril]	320 nM	
CN(C)CCNC(=O)CCCCCOc1ccc(C(=O)N2CCC(N3C(=O)CCc4ccccc43)CC2)cc1 [Example 199, 1-[1-[4-(5-(2-Dimethylaminoethyl)aminocarbonylpentyloxy)benzoyl]-4-piperidinyl}-3,4-dihydrocarbostyril]	55 nM	
O=C(CCCCCOc1ccc(C(=O)N2CCC(N3C(=O)CCc4ccccc43)CC2)cc1)NC1CCN(Cc2ccccc2)CC1 [Example 200, 1-{1-[4-(5-(1-Benzyl-4-piperidinyl)aminocarbonylpentyloxy)benzoyl]-4-piperidinyl}-3,4-dihydrocarbostyril]	34 nM	
